{"source": "paper PMC9834611", "about": "(Pharmacology Research & Perspectives, 2023)", "key": {"[1]": {"details": "cited from earlier work; for t1/2: Obs"}, "[2]": {"assay": "VBL PK study in wild‐type and Mdr1a/b(−/−) mice, observed serum and tissue data", "details": "female, mouse, iv, 2 mg/kg; for half-life: in vivo, 2 mg/kg IV, Obs", "protocol": "Mouse protocols were approved by the Institutional Animal Care and Use Committee at Colorado State University. Two strains of mice were used: FVB female mice and Mdr1a/b (−/−) (knock‐out, KO) female mice in a FVB background (Taconic Biosciences, Inc) for a total of 15 mice per strain with three mice per time point. […] Whole blood and tissues were harvested throughout a time range of 0.08 to 6 h. Whole blood was collected with heparinized needles and transferred to a microcentrifuge tube and was spun at 1200xg for 10 min at 4°C. The resulting serum and tissues were flash‐frozen in liquid nitrogen and stored at −80°C until ready for analysis.\nSerum samples (200μl) were spiked with 50 ng (10 μl of 5 μg/ml solution) of vincristine as an internal standard. […] During vortex mixing, solid‐phase extraction cartridges were prepared by the addition of 400 μl methanol followed by 400 μl milli‐Q water. Loaded samples were then washed twice with 5% methanol. […] Samples were then evaporated to dryness using a Savant AES 1000 SpeedVac. Samples were then resuspended in 100 μl of diluent and transferred to autosampler vials with glass inserts for injection onto the HPLC system.\nPositive ion electrospray ionization (ESI) mass spectra were obtained with a MDS Sciex 3200 Q‐TRAP triple quadrupole mass spectrometer (Applied Biosystems Inc) with a turbo ionspray source interfaced to a Shimadzu HPLC system and an HTC‐PAL autosampler (Leap Technologies). Samples were chromatographed with an Agilent ZORBAX Rx/SB‐C 8 (4.6 × 75 mm) column (Agilent Technologies) protected by a C 18 guard cartridge, 4.0 mm by 2.0 mm (Phenomenex). An LC gradient was employed with mobile phase A consisting of 10 mM ammonium acetate pH 4.0 and mobile phase B consisting of acetonitrile. Chromatographic resolution was obtained by holding mobile phase B steady at 50% from 0 to 0.01 min, increasing linearly from 50% to […] from 0.01 to 3.0 min, holding steady at 99% from 3.0 to 4.5 min, decreasing linearly from 99% to 50% from 4.5 to 5.0 min, followed by equilibration at 50% from 5.0 to 6.0 min. The LC flow rate was 0.75 ml/min and the sample injection volume was 10 μl. The analysis run time was 6.0 min.\nAnalyst v1.5.1 software (Applied Biosystems) was used for peak area integration.\nPlasma and tissue concentrations were measured at time intervals between […] and 6 h post‐drug administration. The mouse PBPK model for Mdr1a/b (−/−) mice and wild‐type mice was developed using SimBiology, MATLAB with a focus on the following tissues: plasma, brain, bone marrow, liver, gut, and kidney. The primary drivers of vinca disposition including tubulin binding, ABCB1‐mediated transport, and elimination via metabolism, biliary clearance, and glomerular filtration created the foundation of the model. Metabolism values were either derived experimentally or sourced from literature, while tissue partitioning and Michaelis–Menten parameters for ABCB1 transport and biliary excretion were optimized using plasma and tissue PK data."}, "[3]": {"assay": "VBL PK study in dogs (clinical trial, serum)", "details": "dog, iv, 2.5 mg/m^2 IV bolus, observed; for AUC(0-t): 2.5 mg/m2, AUCt, dogs, 0 to 24 h; for half-life: 2.5 mg/m2, t1/2, dogs"}, "[4]": {"details": "concomitant prednisone/omeprazole/diphenhydramine (POD)"}}, "note": "Like-named read-outs stand apart in the source and are kept apart here.", "data": [{"smiles": "CC[C@]1(O)C[C@@H]2CN(CCc3c([nH]c4ccccc34)[C@@](C(=O)OC)(c3cc4c(cc3OC)N(C)[C@H]3[C@@](O)(C(=O)OC)[C@H](OC(C)=O)[C@]5(CC)C=CCN6CC[C@]43[C@@H]65)C2)C1", "note": "[VBL, Vinblastine]", "values": [{"measurement": "t1/2", "setting": "[1]; Study 1: IV bolus 0.23 ± 0.08 mg/kg", "value": 10.99, "unit": "h"}, {"measurement": "AUCt", "setting": "[1]; Study 2: non‐small cell lung cancer, IV bolus 0.083 ± 0.009 mg/kg prior to Cisplatin infusion, n 8, Obs", "value": "163 ± 62", "unit": "h x nM"}, {"measurement": "t1/2", "setting": "[1]; Study 3: IV bolus 0.2 mg/kg", "value": 19.7, "unit": "h"}, {"measurement": "AUCt", "setting": "[1]; Study 3: metastatic hypernephroma, IV bolus 0.2 mg/kg, n 1, Obs", "value": 141, "unit": "h x nM"}, {"measurement": "AUC", "setting": "[2]; FVB (wild-type), brain", "value": 0.109, "unit": "µM·h"}, {"measurement": "AUC", "setting": "[2]; FVB (wild-type), gut", "value": 3.47, "unit": "µM·h"}, {"measurement": "half-life", "setting": "[2]; FVB (wild-type), t1/2, wild‐type mice, brain", "value": 3.94, "unit": "h"}, {"measurement": "half-life", "setting": "[2]; FVB (wild-type), t1/2, wild‐type mice, gut", "value": 1.27, "unit": "h"}, {"measurement": "half-life", "setting": "[2]; FVB (wild-type), t1/2, wild‐type mice, kidney", "value": 1.56, "unit": "h"}, {"measurement": "half-life", "setting": "[2]; FVB (wild-type), t1/2, wild‐type mice, liver", "value": 1.32, "unit": "h"}, {"measurement": "half-life", "setting": "[2]; FVB (wild-type), t1/2, wild‐type mice, serum", "value": 1.6, "unit": "h"}, {"measurement": "AUC", "setting": "[2]; FVB (wild-type), kidney", "value": 12.6, "unit": "µM·h"}, {"measurement": "AUC", "setting": "[2]; FVB (wild-type), liver", "value": 4.21, "unit": "µM·h"}, {"measurement": "AUC", "setting": "[2]; FVB (wild-type), serum", "value": 0.181, "unit": "µM·h"}, {"measurement": "AUC", "setting": "[2]; FVB, bone marrow", "value": 2.98, "unit": "µM·h"}, {"measurement": "AUC", "setting": "[2]; Mdr1a/b (−/−) knock-out in FVB background, bone marrow", "value": 2.71, "unit": "µM·h"}, {"measurement": "half-life", "setting": "[2]; Mdr1a/b (−/−) knock-out in FVB background, t1/2, Mdr1a/b (−/−) mice, bone marrow", "value": 5.83, "unit": "h"}, {"measurement": "half-life", "setting": "[2]; Mdr1a/b (−/−) knock-out in FVB background, t1/2, Mdr1a/b (−/−) mice, liver", "value": 1.8, "unit": "h"}, {"measurement": "AUC", "setting": "[2]; Mdr1a/b (−/−) knock-out in FVB background, liver", "value": 4.27, "unit": "µM·h"}, {"measurement": "AUC", "setting": "[2]; Mdr1a/b (−/−) knock-out, FVB background, brain", "value": 1.4, "unit": "µM·h"}, {"measurement": "AUC", "setting": "[2]; Mdr1a/b (−/−) knock-out, FVB background, gut", "value": 5.9, "unit": "µM·h"}, {"measurement": "half-life", "setting": "[2]; Mdr1a/b (−/−) knock-out, FVB background, t1/2, Mdr1a/b (−/−) mice, gut", "value": 3.86, "unit": "h"}, {"measurement": "half-life", "setting": "[2]; Mdr1a/b (−/−) knock-out, FVB background, t1/2, Mdr1a/b (−/−) mice, kidney", "value": 1.79, "unit": "h"}, {"measurement": "half-life", "setting": "[2]; Mdr1a/b (−/−) knock-out, FVB background, t1/2, Mdr1a/b (−/−) mice, serum", "value": 1.62, "unit": "h"}, {"measurement": "AUC", "setting": "[2]; Mdr1a/b (−/−) knock-out, FVB background, serum", "value": 0.215, "unit": "µM·h"}, {"measurement": "AUC(0-t)", "setting": "[3]; concomitant prednisolone only", "value": 0.186, "unit": "µM·h"}, {"measurement": "AUC(0-t)", "setting": "[3]; [4]", "value": 0.0477, "unit": "µM·h"}, {"measurement": "half-life", "setting": "[3]; all patients regardless of concomitant treatment", "value": 18.6, "unit": "h"}, {"measurement": "half-life", "setting": "[3]; concomitant prednisolone only", "value": 15.7, "unit": "h"}, {"measurement": "half-life", "setting": "[3]; [4]", "value": 5.15, "unit": "h"}]}]}
